Measured values: ChEMBL document CHEMBL2424643, “An efficient synthesis, characterization, and antimicrobial screening of tetrahydropyrimidine derivatives” (2013)
≈ marks a conversion by molar mass, not a printed value.

Columns and labels:
Type in all cases: functional
Aspergillus niger = test: Antifungal activity against Aspergillus niger MTCC 282 by two-fold serial dilution method
Streptococcus pyogenes = test: Antibacterial activity against Streptococcus pyogenes MTCC 442 by two-fold serial dilution method
Candida albicans = test: Antifungal activity against Candida albicans MTCC 227 by two-fold serial dilution method
Pseudomonas aeruginosa = test: Antibacterial activity against Pseudomonas aeruginosa MTCC 1688 by two-fold serial dilution method
Escherichia coli = test: Antibacterial activity against Escherichia coli MTCC 443 by two-fold serial dilution method
Staphylococcus aureus = test: Antibacterial activity against Staphylococcus aureus MTCC 96 by two-fold serial dilution method
Aspergillus clavatus = test: Antifungal activity against Aspergillus clavatus MTCC 1323 by two-fold serial dilution method

Molecule: CC1=C(C(=O)Nc2ccc(C)cc2C)C(c2ccc(Cl)cc2)NC(=S)N1 (configuration not stated)
- MIC (Aspergillus niger): 3250 µM (≈ 1250 µg/mL)
- MIC (Streptococcus pyogenes): 649 µM (≈ 251 µg/mL)
- MIC (Candida albicans): 3250 µM (≈ 1250 µg/mL)
- MIC (Pseudomonas aeruginosa): 649 µM (≈ 251 µg/mL)
- MIC (Escherichia coli): 812 µM (≈ 313 µg/mL)
- MIC (Staphylococcus aureus): 812 µM (≈ 313 µg/mL)
- MIC (Aspergillus clavatus): 3250 µM (≈ 1250 µg/mL)

Molecule: CC1=C(C(=O)Nc2ccc(C)cc2C)C(c2ccccc2O)NC(=S)N1 (configuration not stated)
- MIC (Aspergillus niger): 3250 µM (≈ 1190 µg/mL)
- MIC (Streptococcus pyogenes): 325 µM (≈ 119 µg/mL)
- MIC (Candida albicans): 3250 µM (≈ 1190 µg/mL)
- MIC (Pseudomonas aeruginosa): 406 µM (≈ 149 µg/mL)
- MIC (Escherichia coli): 325 µM (≈ 119 µg/mL)
- MIC (Staphylococcus aureus): 812 µM (≈ 298 µg/mL)
- MIC (Aspergillus clavatus): 3250 µM (≈ 1190 µg/mL)

Molecule: CC1=C(C(=O)Nc2ccc(C)cc2C)C(c2cccc(Cl)c2)NC(=S)N1 (configuration not stated)
- MIC (Aspergillus niger): 3250 µM (≈ 1250 µg/mL)
- MIC (Streptococcus pyogenes): 649 µM (≈ 251 µg/mL)
- MIC (Candida albicans): 1620 µM (≈ 627 µg/mL)
- MIC (Pseudomonas aeruginosa): 649 µM (≈ 251 µg/mL)
- MIC (Escherichia coli): 325 µM (≈ 125 µg/mL)
- MIC (Staphylococcus aureus): 812 µM (≈ 313 µg/mL)
- MIC (Aspergillus clavatus): 3250 µM (≈ 1250 µg/mL)

Molecule: COc1ccc(C2NC(=S)NC(C)=C2C(=O)Nc2ccc(C)cc2C)cc1 (configuration not stated)
- MIC (Aspergillus niger): 3250 µM (≈ 1240 µg/mL)
- MIC (Streptococcus pyogenes): 406 µM (≈ 155 µg/mL)
- MIC (Candida albicans): 3250 µM (≈ 1240 µg/mL)
- MIC (Pseudomonas aeruginosa): 325 µM (≈ 124 µg/mL)
- MIC (Escherichia coli): 203 µM (≈ 77.4 µg/mL)
- MIC (Staphylococcus aureus): 203 µM (≈ 77.4 µg/mL)
- MIC (Aspergillus clavatus): 3250 µM (≈ 1240 µg/mL)

Molecule: CC1=C(C(=O)Nc2ccc(C)cc2C)C(c2ccc([N+](=O)[O-])cc2)NC(=S)N1 (configuration not stated)
- MIC (Aspergillus niger): 3250 µM (≈ 1290 µg/mL)
- MIC (Streptococcus pyogenes): 812 µM (≈ 322 µg/mL)
- MIC (Candida albicans): 1620 µM (≈ 644 µg/mL)
- MIC (Pseudomonas aeruginosa): 812 µM (≈ 322 µg/mL)
- MIC (Escherichia coli): 406 µM (≈ 161 µg/mL)
- MIC (Staphylococcus aureus): 812 µM (≈ 322 µg/mL)
- MIC (Aspergillus clavatus): 3250 µM (≈ 1290 µg/mL)

Molecule: CC1(C)S[C@@H]2[C@H](NC(=O)[C@H](N)c3ccccc3)C(=O)N2[C@H]1C(=O)O [AMPICILLIN]
- MIC (Streptococcus pyogenes): 100 µM (≈ 34.9 µg/mL)
- MIC (Pseudomonas aeruginosa): 100 µM (≈ 34.9 µg/mL)
- MIC (Escherichia coli): 100 µM (≈ 34.9 µg/mL)
- MIC (Staphylococcus aureus): 250 µM (≈ 87.4 µg/mL)

Molecule: O=C(N[C@H](CO)[C@H](O)c1ccc([N+](=O)[O-])cc1)C(Cl)Cl [CHLORAMPHENICOL]
- MIC (Streptococcus pyogenes): 50 µM (≈ 16.2 µg/mL)
- MIC (Pseudomonas aeruginosa): 50 µM (≈ 16.2 µg/mL)
- MIC (Escherichia coli): 50 µM (≈ 16.2 µg/mL)
- MIC (Staphylococcus aureus): 50 µM (≈ 16.2 µg/mL)

Molecule: NYSTATIN
- MIC (Aspergillus niger): 100 µM
- MIC (Candida albicans): 100 µM
- MIC (Aspergillus clavatus): 100 µM

Molecule: CC1=C(C(=O)Nc2ccc(C)cc2C)C(c2cccc([N+](=O)[O-])c2)NC(=S)N1 (configuration not stated)
- MIC (Aspergillus niger): 3250 µM (≈ 1290 µg/mL)
- MIC (Streptococcus pyogenes): 649 µM (≈ 257 µg/mL)
- MIC (Candida albicans): 1620 µM (≈ 644 µg/mL)
- MIC (Pseudomonas aeruginosa): 812 µM (≈ 322 µg/mL)
- MIC (Escherichia coli): 649 µM (≈ 257 µg/mL)
- MIC (Staphylococcus aureus): 812 µM (≈ 322 µg/mL)
- MIC (Aspergillus clavatus): 3250 µM (≈ 1290 µg/mL)

Molecule: CC1=C(C(=O)Nc2ccc(C)cc2C)C(c2cccc(O)c2)NC(=S)N1 (configuration not stated)
- MIC (Aspergillus niger): 3250 µM (≈ 1190 µg/mL)
- MIC (Streptococcus pyogenes): 203 µM (≈ 74.6 µg/mL)
- MIC (Candida albicans): 1620 µM (≈ 597 µg/mL)
- MIC (Pseudomonas aeruginosa): 649 µM (≈ 239 µg/mL)
- MIC (Escherichia coli): 812 µM (≈ 298 µg/mL)
- MIC (Staphylococcus aureus): 649 µM (≈ 239 µg/mL)
- MIC (Aspergillus clavatus): 3250 µM (≈ 1190 µg/mL)

Molecule: CC1=C(C(=O)Nc2ccc(C)cc2C)C(c2ccccc2[N+](=O)[O-])NC(=S)N1 (configuration not stated)
- MIC (Aspergillus niger): 3250 µM (≈ 1290 µg/mL)
- MIC (Streptococcus pyogenes): 406 µM (≈ 161 µg/mL)
- MIC (Candida albicans): 3250 µM (≈ 1290 µg/mL)
- MIC (Pseudomonas aeruginosa): 649 µM (≈ 257 µg/mL)
- MIC (Escherichia coli): 649 µM (≈ 257 µg/mL)
- MIC (Staphylococcus aureus): 649 µM (≈ 257 µg/mL)
- MIC (Aspergillus clavatus): 3250 µM (≈ 1290 µg/mL)
